{"source": "patent US9744177B2", "about": "“Treatment of male androgen deficiency symptoms or diseases with sex steroid precursor combined with SERM” (ENDORECHERCHE, INC., priority 2014, dated 2017)", "key": {"[1]": {"system": "ovariectomized female rats", "experiment": "3-month treatment of ovariectomized female rats: lumbar spine BMD, total fat, cholesterol, ALP (Example 3, experiment 1)", "type": "in vivo, Sprague-Dawley rats", "settings": "OVX rats, 3 months, serum", "description": "Ten to twelve week-old female Sprague-Dawley rats (Crl:CD(SD)Br) (Charles River Laboratory, St-Constant, Canada) weighing approximately 220-270 g at start of treatment were used. The animals were acclimatized to the environmental conditions (temperature: 22±3° C.; humidity: 50±20%; 12-h light-12-h dark cycles, lights on at 07:15 h) for at least 1 week before starting the experiments. The animals were housed individually and were allowed free access to tap water and a pelleted certified rodent feed (Lab Diet 5002, Ralston Purina, St-Louis, Mo.). Experiments were conducted in an animal facility approved by the Canadian Council on Animal Care (CCAC) and the Association for Assessment and Accreditation of Laboratory Animal Care (AAALAC) in accordance with the CCAC Guide for Care and Use of Experimental Animals.\nOn Day 1 of the study, the animals of the appropriate groups were bilaterally ovariectomized (OVX) under isoflurane anesthesia. The DHEA was applied topically on the dorsal skin as a solution in 50% ethanol-50% propylene glycol while the other tested compounds were administered as suspension in 0.4% methylcellulose by oral gavage. Treatments were initiated on Day 2 of the study and were performed once daily during 3 months.\nAfter 3 months (experiment 1) or 26 weeks (experiment 2) of treatment, individual rats under Isoflurane anesthesia had their whole body skeleton and lumbar spine scanned using dual energy x-ray absorptiometry (DEXA; QDR 4500A, Hologic, Waltham, Mass.) and a Regional High Resolution Scan software. The bone mineral density (BMD) of the lumbar spine (vertebrae L2 to L4) and the total body composition (fat percentage) were determined.\nAfter 3 months (experiment 1) or 26 weeks (experiment 2) of treatment, blood samples were collected at the jugular vein from overnight fasted animals (under Isoflurane anesthesia). Samples were processed for serum preparation and frozen at −80° C. until assay. Serum cholesterol levels and alkaline phospatase activity (ALP) were determined using the Boehringer Mannheim Diagnostic Hitachi 911 Analyzer (Boehringer Mannheim Diagnostic Laboratory Systems).\nData are expressed as means±SEM. Statistical significance was determined according to the multiple-range test of Duncan-Kramer (Kramer 1956)."}, "[2]": {"system": "biochemical parameters of bone metabolism", "experiment": "Treatment of rats with DHEA and EM-800 alone or in combination: biochemical parameters of bone metabolism, serum lipids", "type": "in vivo", "settings": "rat", "description": "Data are expressed as the means±SEM. **: p<0.01 experimental versus respective control.\nIt is thus important to analyze the changes in biochemical parameters of bone metabolism induced by various compounds and treatments in order to gain a better knowledge of their action (Table 2).\nIt is particularly important to indicate that the combination of DHEA and acolbifene exerted unexpected beneficial effects on important biochemical parameters of bone metabolism. […] Moreover, no effect of DHEA could be detected on daily urinary calcium or phosphorus excretion (Luo, Sourla et al. 1997). EM-800 (prodrug of acolbifene free salt) decreased the urinary hydroxyproline/creatinine ratio by 48% while, similarly to DHEA, no effect of EM 800 (prodrug of acolbifene, free salt) was seen on urinary calcium or phosphorus excretion. EM-800, moreover, had no effect on serum alkaline phosphatase activity, a marker of bone formation while DHEA increased the value of the parameter by about 75% (Luo, Sourla et al. 1997)."}, "[3]": {"system": "human ZR-75-1 breast tumors", "experiment": "ZR-75-1 tumor growth in ovariectomized nude mice in absence of estrone (agonistic effects)", "settings": "no estrone, 200 μg daily, 161 days"}, "[4]": {"settings": "9 months, DHEA 10 mg percutaneously, EM-800 75 μg orally, once daily (FIG. 10)"}}, "note": "Marks after values point to notes of the source that are not given here."}
{"smiles": "C[C@]12CC[C@@H]3c4ccc(O)cc4CC[C@H]3[C@@H]1CC[C@@H]2O", "note": "[E2, 17β-estradiol]", "values": [{"measurement": "ALP", "setting": "[1]", "value": "59 ± 4", "unit": "IU/L"}]}
{"smiles": "CC1=C(c2ccc(OC(=O)C(C)(C)C)cc2)[C@H](c2ccc(OCCN3CCCCC3)cc2)Oc2cc(OC(=O)C(C)(C)C)ccc21", "note": "[EM-800, (S)-(+)-4-[7-(2,2-dimethyl-1-oxopropoxy)-4-methyl-2-[4-[2-(1-piperidinyl)-ethoxy]phenyl]-2H-1-benzopyran-3-yl]-phenyl 2,2-dimethylpropanoate]", "values": [{"measurement": "effect on serum cholesterol", "setting": "[2]; [4]", "value": "decreases"}, {"measurement": "effect on serum triglycerides", "setting": "[2]; [4]", "value": "decreases"}, {"measurement": "URINE HP/Cr (hydroxyproline/creatinine ratio)", "setting": "[2]; DHEA 10 mg, EM-800 75 μg", "value": "6.81 ± 0.84** μmol/mmol"}]}
{"smiles": "CC/C(=C(\\c1ccccc1)c1ccc(/C=C/C(=O)O)cc1)c1ccccc1", "note": "[GW 5638]", "values": [{"measurement": "effect of compound alone on ZR-75-1 tumor size compared to OVX control", "setting": "[3]", "value": "did not significantly change"}, {"measurement": "ALP", "setting": "[1]", "value": "72 ± 6", "unit": "IU/L"}]}
{"smiles": "CC/C(=C(/c1ccc(OCCN(C)C)cc1)c1cccc(O)c1)c1ccccc1", "note": "[droloxifene, (E)-3-[1-[4-[2-(Dimethylamino)ethoxy]phenyl]-2-phenyl-1-butenyl]phenol]", "values": [{"measurement": "effect of compound alone on ZR-75-1 tumor size compared to OVX control", "setting": "[3]", "value": "did not significantly change"}]}
{"smiles": "Cl.O=C(c1ccc(OCCN2CCCCC2)cc1)c1c(-c2ccc(O)cc2)sc2cc(O)ccc12", "note": "[raloxifene, [2-(4-hydroxyphenyl)-6-hydroxybenzo[b]thien-3-yl][4-[2-(1-piperidinyl)ethoxy]phenyl]-methanone hydrochloride]", "values": [{"measurement": "effect of compound alone on ZR-75-1 tumor size compared to OVX control", "setting": "[3]", "value": "did not significantly change"}]}
{"smiles": "CC/C(=C(\\c1ccccc1)c1ccc(OCCN(C)C)cc1)c1ccccc1", "note": "[tamoxifen, (Z)-2-[4-(1,2-diphenyl-1-butenyl)phenoxy]-N,N-dimethylethanamine]", "values": [{"measurement": "stimulatory effect on tumor growth (FIG. 15)", "setting": "[3]; OVX nude mice", "value": "approximately 100%"}]}
{"smiles": "CN(C)CCOc1ccc(/C(=C(/CCCl)c2ccccc2)c2ccccc2)cc1", "note": "[toremifene, (Z)-2-[4-(4-Chloro-1,2-diphenyl-1-butenyl)phenoxy]-N,N-dimethylethanamine]", "values": [{"measurement": "average tumor size increase over baseline", "setting": "[3]; OVX nude mice", "value": 86, "unit": "%"}]}
